From US9783536B2, “Nitrogen-containing heterocyclic compound or salt thereof” (FUJIFILM Corporation, priority 2013, dated 2017) come the findings set out here.

In assay [1] the target is T1, human PI3Kα protein (Homo sapiens, UniProt P42336).
T1 construct: purchased Carna Biosciences, Inc; host or cells: baculovirus expression system
As to the kind of experiment: PI3Kα enzyme assay (ADP-Glo). The class given is biochemical. As to conditions: 4.5 nmol/L PI3Kα, PIP2 50 μmol/L, ATP 100 μmol/L; read-out: PI3Kα enzyme inhibitory activity. A digest of the protocol:
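Biotinylated human PI3Kα (baculovirus-expressed, 4.5 nmol/L) pre-incubated 15 min with compound in Tris-HCl pH 7.5, MgCl2, BSA; reaction 60 min at 25° C with 50 μmol/L PIP2 and 100 μmol/L ATP final. ADP quantified by ADP-Glo luminescence; IC50 calculated.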
On the technique in general: ADP-Glo first removes unused ATP, then detects ADP through luciferase.

Assay [2] addresses T2, GST fusion human ERK2 protein (Homo sapiens, UniProt P28482).
T2 construct: purchased Carna Biosciences, Inc; host or cells: E. coli expression system
The assay can be described thus: ERK2 enzyme assay (1). As to conditions: 2.5 nmol/L ERK2, ATP 43.1 μmol/L; read-out: ERK2 enzyme inhibitory activity (1). Format: biochemical. The procedure:
In an ERK2 enzyme assay, GLUTATHIONE S-TRANSFERASE (GST) FUSION HUMAN ERK2 PROTEIN (manufactured by Carna Biosciences, Inc.), which was produced by using an E. coli expression system, was used.
12 μL of a reaction liquid (2.5 nmol/L ERK2, 100 mmol/L Hepes, 10 mmol/L MgCl2, 1.5 mmol/L DTT, 0.003% Brij35, pH 7.5) including ERK2 protein and a test compound having a predetermined concentration was allowed to stand at room temperature for 15 minutes. Then, 3 μL of a mixture liquid of FL-PEPTIDE8 (5-FAM-IPTSPITTTYFFFKKK-COOH) (manufactured by Caliper Life Sciences), which is substrate peptide, and ATP (manufactured by Sigma-Aldrich Co. LLC.) was added thereto such that the final concentrations thereof became 4.25 μmol/L and 43.1 μmol/L, respectively, and an enzyme reaction was performed by allowing to stand at 25° C. for 120 minutes.
After the reaction, the enzyme reaction was stopped by adding 30 μL of a reaction stopper liquid (100 mmol/L HEPES, 11.2 mmol/L EDTA, 5.6% Brij35, pH 7.5) including a 0.5% COATING REAGENT 8 (trade name, manufactured by Perkin Elmer Inc.) thereto. Then, phosphorylated peptide and non-phosphorylated peptide were separated using LABCHIP EZ READER (trade name, manufactured by Caliper Life Sciences), and the porportion of the phosphorylated peptide was quantified.
The inhibitory activities of the compounds were evaluated using IC50 (50% inhibitory concentration). The IC50 was calculated using XLFIT (trade name, manufactured by ID Business Solutions).

Each structure is given as a SMILES string. Structures can show the parent of a compound that is named as a salt. Some results are limits rather than exact numbers.

T2 sequence (P28482 whole entry, the tested form may be a part): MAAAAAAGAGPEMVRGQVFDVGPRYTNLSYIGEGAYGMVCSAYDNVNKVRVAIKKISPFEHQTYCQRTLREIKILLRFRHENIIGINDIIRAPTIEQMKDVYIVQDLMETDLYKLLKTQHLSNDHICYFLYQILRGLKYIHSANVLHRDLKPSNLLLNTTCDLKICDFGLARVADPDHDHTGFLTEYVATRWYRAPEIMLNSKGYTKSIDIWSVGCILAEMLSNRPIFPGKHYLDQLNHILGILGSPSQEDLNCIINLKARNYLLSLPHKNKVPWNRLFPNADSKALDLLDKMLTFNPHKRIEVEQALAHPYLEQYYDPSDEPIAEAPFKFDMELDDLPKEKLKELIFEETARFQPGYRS
T1 sequence (P42336 whole entry): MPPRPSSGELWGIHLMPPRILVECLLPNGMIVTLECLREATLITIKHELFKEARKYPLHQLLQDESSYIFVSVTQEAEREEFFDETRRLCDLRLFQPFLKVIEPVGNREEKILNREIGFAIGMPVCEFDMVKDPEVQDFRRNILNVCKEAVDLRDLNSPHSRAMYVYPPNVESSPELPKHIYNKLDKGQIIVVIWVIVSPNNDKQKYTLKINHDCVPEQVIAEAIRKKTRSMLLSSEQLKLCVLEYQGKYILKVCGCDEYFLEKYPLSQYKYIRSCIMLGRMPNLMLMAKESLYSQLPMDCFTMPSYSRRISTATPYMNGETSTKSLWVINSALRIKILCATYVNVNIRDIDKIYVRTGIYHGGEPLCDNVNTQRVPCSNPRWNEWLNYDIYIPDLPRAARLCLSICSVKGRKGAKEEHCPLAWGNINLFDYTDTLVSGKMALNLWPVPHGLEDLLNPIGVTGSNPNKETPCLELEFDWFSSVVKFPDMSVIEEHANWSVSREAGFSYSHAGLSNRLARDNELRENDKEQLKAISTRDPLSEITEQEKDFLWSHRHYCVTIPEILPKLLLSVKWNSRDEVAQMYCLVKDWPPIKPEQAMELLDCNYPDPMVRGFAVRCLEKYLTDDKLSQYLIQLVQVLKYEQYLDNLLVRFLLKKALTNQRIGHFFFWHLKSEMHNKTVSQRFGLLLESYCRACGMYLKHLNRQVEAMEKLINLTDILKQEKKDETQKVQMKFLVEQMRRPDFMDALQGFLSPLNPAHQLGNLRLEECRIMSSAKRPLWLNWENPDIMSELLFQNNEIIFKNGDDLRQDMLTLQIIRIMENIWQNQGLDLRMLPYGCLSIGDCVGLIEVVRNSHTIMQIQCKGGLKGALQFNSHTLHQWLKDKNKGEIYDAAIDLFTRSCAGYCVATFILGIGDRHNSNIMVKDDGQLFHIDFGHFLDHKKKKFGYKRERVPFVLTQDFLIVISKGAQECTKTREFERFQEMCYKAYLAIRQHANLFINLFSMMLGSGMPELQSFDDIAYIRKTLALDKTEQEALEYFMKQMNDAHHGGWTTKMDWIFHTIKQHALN
T1 sequence (P27986 whole entry partner): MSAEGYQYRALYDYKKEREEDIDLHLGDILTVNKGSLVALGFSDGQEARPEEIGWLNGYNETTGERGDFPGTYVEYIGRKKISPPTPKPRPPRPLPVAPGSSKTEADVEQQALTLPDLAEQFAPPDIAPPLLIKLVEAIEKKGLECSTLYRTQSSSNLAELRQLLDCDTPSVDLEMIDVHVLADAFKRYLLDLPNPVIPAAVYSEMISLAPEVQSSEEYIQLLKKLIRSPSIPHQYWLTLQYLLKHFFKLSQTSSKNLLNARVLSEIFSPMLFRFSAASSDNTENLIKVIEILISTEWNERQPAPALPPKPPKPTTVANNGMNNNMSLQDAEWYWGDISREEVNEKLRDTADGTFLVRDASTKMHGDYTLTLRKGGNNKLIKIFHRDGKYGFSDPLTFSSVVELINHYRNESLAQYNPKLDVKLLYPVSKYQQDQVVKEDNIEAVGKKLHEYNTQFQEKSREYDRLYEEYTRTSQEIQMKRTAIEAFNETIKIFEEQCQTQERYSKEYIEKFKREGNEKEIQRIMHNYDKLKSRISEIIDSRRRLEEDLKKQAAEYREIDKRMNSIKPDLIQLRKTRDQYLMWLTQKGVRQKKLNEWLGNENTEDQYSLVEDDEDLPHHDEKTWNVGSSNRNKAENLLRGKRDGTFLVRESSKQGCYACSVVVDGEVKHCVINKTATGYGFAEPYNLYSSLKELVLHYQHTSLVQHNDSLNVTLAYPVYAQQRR

Take `CC(C)c1nnc(Nc2ccc3nccc(Nc4ccncn4)c3n2)s1` [Example 0007]: the IC50 in assay [1] and in assay [2] was < 1000 nM throughout.

On to `CC(C)c1nnc(Nc2ccc3nccc(Nc4ccnnc4)c3n2)s1` [Example 0008], for which the IC50 in assay [1] is < 1000 nM; in assay [2], 1000 to 10000 nM.

As to `CC(C)c1nnc(Nc2ccc3nccc(Nc4ccccc4)c3n2)s1` [Example 0009], the IC50 in assay [1] and in assay [2] was 1000 to 10000 nM throughout.

For the compound `CC(C)c1nnc(Nc2ccc3ncc(-c4cnn(C)c4)nc3n2)s1` [Example 0010, 5-isopropyl-N-(3-(1-methyl-1H-pyrazol-4-yl)pyrido[2,3-b]pyrazine-6-yl)-1,3,4-thiadiazole-2-amineformate], the IC50 in assay [1] is 1000 to 10000 nM; in assay [2], < 1000 nM.

As to `COc1ccccc1Nc1ccnc2ccc(Nc3nnc(C(C)C)s3)nc12` [Example 0011], the IC50 in assay [1] is < 1000 nM; in assay [2] it was 1000 to 10000 nM.

For `COc1cccc(Nc2ccnc3ccc(Nc4nnc(C(C)C)s4)nc23)c1` [Example 0012], the IC50 in assay [1] was < 1000 nM; in assay [2], 1000 to 10000 nM.

For the compound `COc1ccc(Nc2ccnc3ccc(Nc4nnc(C(C)C)s4)nc23)cc1` [Example 0013], the IC50 was < 1000 nM in assay [1] and 1000 to 10000 nM in assay [2].

For `CC(C)c1cnnc(Nc2ccc3ncc(-c4cnn(CCCN(C)C)c4)cc3n2)c1` [Example 0020, 7-(1-(3-(Dimethylamino)propyl)-1H-pyrazol-4-yl)-N-(5-isopropylpyridazin-3-yl)-1,5-naphthyridine-2-amine], the IC50 in assay [1] and in assay [2] was < 1000 nM throughout.

`COc1ccc(-c2cnc3ccc(Nc4ncc(C)s4)nc3c2)cc1OC` [Example 0022, N-(7-(3,4-dimethoxyphenyl)-1,5-naphthyridin-2-yl)-5-methylthiazole-2-amine]: the IC50 in assay [1] lay within 1000 to 10000 nM; in assay [2], 10000 to 50000 nM.

Consider `COc1ccc(-c2cnc3ccc(Nc4nccs4)nc3c2)cc1OC` [Example 0023, N-(7-(3,4-dimethoxyphenyl)-1,5-naphthyridin-2-yl)thiazole-2-amine], for which the IC50 in assay [1] and in assay [2] was 1000 to 10000 nM each time.

As to `COc1ccc(-c2cnc3ccc(Nc4nc(C)cs4)nc3c2)cc1OC` [Example 0024, N-(7-(3,4-dimethoxyphenyl)-1,5-naphthyridin-2-yl)-4-methylthiazole-2-amine], the IC50 in assay [1] is 1000 to 10000 nM; in assay [2], 10000 to 50000 nM.

For `Cn1cc(-c2cnc3ccc(Nc4nccs4)nc3c2)cn1` [Example 0029], the IC50 in assay [1] and in assay [2] was < 1000 nM each time.

For the compound `Cn1cc(-c2cnc3ccc(Nc4ncc[nH]4)nc3c2)cn1` [Example 0030, N-(1H-imidazol-2-yl)-7-(1-methyl-1H-pyrazol-4-yl)-1,5-naphthyridine-2-amine], the IC50 in assay [1] and in assay [2] was < 1000 nM throughout.

`Cn1cc(-c2cnc3ccc(Nc4cc[nH]n4)nc3c2)cn1` [Example 0033, 7-(1-methyl-1H-pyrazol-4-yl)-N-(1H-pyrazol-3-yl)-1,5-naphthyridine-2-aminetrifluoroacetate]: the IC50 in assay [1] and in assay [2] was 1000 to 10000 nM throughout.

For `CCOC(=O)c1cnc(Nc2ccc3ncc(-c4cnn(C)c4)cc3n2)s1` [Example 0035, ethyl 2-((7-(1-methyl-1H-pyrazol-4-yl)-1,5-naphthyridin-2-yl)amino)thiazole-5-carboxylate], the IC50 in assay [1] is < 1000 nM; in assay [2] it was 1000 to 10000 nM.

With `Cn1cc(-c2cnc3ccc(Nc4ccccn4)nc3c2)cn1` [Example 0036, 7-(1-methyl-1H-pyrazol-4-yl)-N-(pyridin-2-yl)-1,5-naphthyridine-2-amine], the IC50 in assay [1] and in assay [2] was 1000 to 10000 nM in each case.

Turning to `Cn1cc(-c2cnc3ccc(Nc4cccnc4)nc3c2)cn1` [Example 0038], the IC50 in assay [1] was 10000 to 50000 nM; in assay [2] it was 1000 to 10000 nM.

For `Oc1cnc2ccc(Nc3nnc(C4CCCC4)s3)nc2c1` [Example 0040, 6-((5-cyclopentyl-1,3,4-thiadiazol-2-yl)amino)-1,5-naphthyridin-3-ol hydrochloride], the IC50 in assay [1] was 10000 to 50000 nM; in assay [2], < 1000 nM.

In the case of `COCCOc1cnc2ccc(Nc3nnc(C4CCCC4)s3)nc2c1` [Example 0041, 5-cyclopentyl-N-(7-(2-methoxyethoxy)-1,5-naphthyridin-2-yl)-1,3,4-thiadiazole-2-amine hydrochloride], the IC50 in assay [1] was 10000 to 50000 nM; in assay [2] it was < 1000 nM.

For the compound `c1cnc2ccc(Nc3nnc(C4CCCC4)s3)nc2c1` [Example 0043, 5-cyclopentyl-N-(1,5-naphthyridin-2-yl)-1,3,4-thiadiazole-2-amine hydrochloride], the IC50 is 1000 to 10000 nM in assay [1] and < 1000 nM in assay [2].

In the case of `O=C1C=C(c2cnc3ccc(Nc4nnc(C5CCCC5)s4)nc3c2)CO1` [Example 0045, 4-(6-((5-cyclopentyl-1,3,4-thiadiazol-2-yl)amino)-1,5-naphthyridin-3-yl)furan-2(5H)-one hydrochloride], the IC50 in assay [1] was 10000 to 50000 nM; in assay [2], < 1000 nM.

Take `OCCN1CCN(c2cnc3ccc(Nc4nnc(C5CCCC5)s4)nc3c2)CC1` [Example 0046, 2-(4-(6-((5-cyclopentyl-1,3,4-thiadiazol-2-yl)amino)-1,5-naphthyridin-3-yl)piperazin-1-yl)ethanol hydrochloride]: the IC50 in assay [1] was 1000 to 10000 nM; in assay [2], < 1000 nM.

Consider `CC(=O)N1CCN(c2cnc3ccc(Nc4nnc(C5CCCC5)s4)nc3c2)CC1` [Example 0048], for which the values for the IC50 in assay [1] and in assay [2] were 1000 to 10000 nM and < 1000 nM, respectively.

Turning to `OCCCN1CCN(c2cnc3ccc(Nc4nnc(C5CCCC5)s4)nc3c2)CC1` [Example 0050], the IC50 is 1000 to 10000 nM in assay [1] and < 1000 nM in assay [2].

As for `OC1CCN(c2cnc3ccc(Nc4nnc(C5CCCC5)s4)nc3c2)CC1` [Example 0051], the figures for the IC50 in assay [1] and in assay [2] were 1000 to 10000 nM and < 1000 nM, respectively.

Consider `CN1CCN(c2cnc3ccc(Nc4nnc(C5CCCC5)s4)nc3c2)CC1` [Example 0052], for which the values for the IC50 in assay [1] and in assay [2] were 1000 to 10000 nM and < 1000 nM, respectively.

Take `CS(=O)(=O)N1CCN(c2cnc3ccc(Nc4nnc(C5CCCC5)s4)nc3c2)CC1` [Example 0053, 5-cyclopentyl-N-(7-(4-(methylsulfonyl)piperazin-1-yl)-1,5-naphthyridin-2-yl)-1,3,4-thiadiazole-2-amine hydrochloride]: the IC50 in assay [1] is 1000 to 10000 nM; in assay [2] it was < 1000 nM.

Regarding `CN1CCN(c2cnc3ccc(Nc4nnc(C5CCCC5)s4)nc3c2)CC1=O` [Example 0054], the IC50 in assay [1] and in assay [2] was < 1000 nM in each case.

Regarding `c1nc2ccc(Nc3nnc(C4CCCC4)s3)nc2cc1N1CCNCC1` [Example 0055], the values for the IC50 in assay [1] and in assay [2] were 1000 to 10000 nM and < 1000 nM, respectively.

On to `CCOC(=O)C1CCCN(c2cnc3ccc(Nc4nnc(C5CCCC5)s4)nc3c2)C1` (centres unmarked) [Example 0056], for which the IC50 is 10000 to 50000 nM in assay [1] and < 1000 nM in assay [2].

Consider `CCOC(=O)C1CCN(c2cnc3ccc(Nc4nnc(C5CCCC5)s4)nc3c2)CC1` [Example 0057], for which the IC50 was 10000 to 50000 nM in assay [1] and 1000 to 10000 nM in assay [2].

As for `O=C(CO)N1CCN(c2cnc3ccc(Nc4nnc(C5CCCC5)s4)nc3c2)CC1` [Example 0058, 1-(4-(6-((5-cyclopentyl-1,3,4-thiadiazol-2-yl)amino)-1,5-naphthyridin-3-yl)piperazin-1-yl)-2-hydroxyethanone], the IC50 in assay [1] was 1000 to 10000 nM; in assay [2] it was < 1000 nM.

Take `CN(C)CC(=O)N1CCN(c2cnc3ccc(Nc4nnc(C5CCCC5)s4)nc3c2)CC1` [Example 0059, 1-(4-(6-((5-cyclopentyl-1,3,4-thiadiazol-2-yl)amino)-1,5-naphthyridin-3-yl)piperazin-1-yl)-2-(dimethylamino)ethanone]: the results for the IC50 in assay [1] and in assay [2] were 1000 to 10000 nM and < 1000 nM, respectively.

Take `CN1CCCN(c2cnc3ccc(Nc4nnc(C5CCCC5)s4)nc3c2)CC1` [Example 0060]: the IC50 in assay [1] was 10000 to 50000 nM; in assay [2], < 1000 nM.

For the compound `COC[C@@H]1CCCN1c1cnc2ccc(Nc3nnc(C4CCCC4)s3)nc2c1` [Example 0061], the IC50 in assay [1] was 1000 to 10000 nM; in assay [2], < 1000 nM.

Turning to `COC[C@H]1CCCN1c1cnc2ccc(Nc3nnc(C4CCCC4)s3)nc2c1` [Example 0062], the figures for the IC50 in assay [1] and in assay [2] were 1000 to 10000 nM and < 1000 nM, respectively.

As for `CC(=O)N1CCC(Nc2cnc3ccc(Nc4nnc(C5CCCC5)s4)nc3c2)CC1` [Example 0063], the IC50 in assay [1] and in assay [2] was < 1000 nM in each case.
